“And” between values parts separate entries of the source, which are not always exact repeats. Equal values may be shown once.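 Test compounds were applied to cells in 96-well plates for 48 hours at 5 doses. The concentration for 50% growth inhibition is given as GI50. TGI denotes the concentration required for complete inhibition of growth.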
Key:
Experiment in all cases: DTP human tumour cell line panel, 48 h
[1] = tested on: OVCAR-5 ovarian
[2] = tested on: MCF7 breast
[3] = tested on: MDA-MB-231 breast
[4] = tested on: HCT-15 colon
[5] = tested on: UO-31 renal
[6] = tested on: SF-539 CNS
[7] = tested on: T-47D breast
[8] = tested on: LOX IMVI melanoma
[9] = tested on: DU-145 prostate
[10] = tested on: PC-3 prostate

| SMILES | GI50 [1] [µM] | TGI [1] [µM] | GI50 [2] | TGI [2] [µM] | GI50 [3] | TGI [3] [µM] | GI50 [4] | TGI [4] | GI50 [5] | TGI [5] | GI50 [6] | TGI [6] | GI50 [7] [µM] | TGI [7] [µM] | GI50 [8] | TGI [8] | GI50 [9] [µM] | TGI [9] [µM] | GI50 [10] | TGI [10] [µM] |
| --- | --- | --- | --- | --- | --- | --- | --- | --- | --- | --- | --- | --- | --- | --- | --- | --- | --- | --- | --- | --- |
| CCS(=O)(=O)c1ccc(OC)c(Nc2ncc(-c3cccc(-c4ccccc4F)c3)o2)c1 | 13 | > 25 | > 21 µM | > 25 | 14.1 µM | > 25 | 16.8 µM | > 25 µM | 1.48 µM | 20.3 µM | 7.81 µM | > 25 µM | 6.45 | > 25 | 15.1 µM | > 25 µM | > 25 | > 25 | 15.5 µM | > 25 |
| O=C(/C=C\c1cccc([N+](=O)[O-])c1)c1ccccc1 | 3.92 | 18.7 | 1.81 µM | 9.71 | 9.72 µM | 25.1 | 2.16 µM | 5.95 µM | 1.79 µM | 4.11 µM | 3.4 µM | 9.81 µM | 2.33 | 6.1 | 1.76 µM | 3.82 µM | 2.35 | 5.88 | 2.67 µM | 11.3 |
| O=C1C(CN(Cc2ccccc2)Cc2ccccc2)CCCC1CN(Cc1ccccc1)Cc1ccccc1 (configuration not stated) | – | > 100 | 20.3 µM and > 100 µM | > 100 | > 100 µM and 38.3 µM | > 100 | 14.2 µM and > 100 µM | 21.3 µM and > 100 µM | 16.9 µM and 47.6 µM | 27.3 µM and > 100 µM | 17.2 µM and 50.5 µM | 33.1 µM and > 100 µM | – | > 100 | 14.1 µM and > 77.1 µM | 28.3 µM and > 100 µM | – | > 100 | > 100 µM and 41.5 µM | > 100 |
| CC(C)[C@@H]1NC(=O)[C@]2(C)CSC(=N2)c2csc(n2)CNC(=O)C[C@@H](/C=C/CCS)OC1=O | 0.0829 | > 100 | 0.274 µM | > 100 | 0.317 µM | > 47.4 | 5.12 µM | > 100 µM | 0.605 µM | 6.5 µM | 0.0543 µM | > 100 µM | 0.491 | 7.5 | 0.131 µM | 0.355 µM | 0.147 | > 100 | 0.0577 µM | > 100 |
| COc1ccc(C2=C(Br)C(=O)OC2)cc1Cl | 51.2 | > 100 | 29.6 µM | > 93 | 24.7 µM | 69.9 | 19.4 µM | > 55.1 µM | 39.6 µM | > 100 µM | 15.2 µM | 39.8 µM | 1.93 | 35.5 | 18.9 µM | 46.5 µM | 20.8 | 88.9 | 33.1 µM | > 91.5 |
| O=C1OCC2=C1C(c1cccc([N+](=O)[O-])c1)c1cc3c(cc1N2CCO)CCC3 (configuration not stated) | 0.231 | > 50 | 0.0596 µM | > 50 | 0.271 µM | > 19.3 | 0.121 µM | > 50 µM | 0.269 µM | > 34.3 µM | 0.11 µM | 0.38 µM | 0.355 | > 50 | 0.286 µM | 8.29 µM | 0.19 | > 24.5 | 0.145 µM | > 50 |
